Test results as given in patent US12612395B2, “Rocaglate derivatives and uses thereof” (TRUSTEES OF BOSTON UNIVERSITY, priority 2023, dated 2026).
Read-outs that look alike come from different tables or passages of the source.

Columns and labels:
GBM0308 non-CSCs = experiment: Dose-response killing of GBM non-CSCs (PI/Hoechst, Celigo cytometer); assay type: cell-based; settings: GBM0308 non-CSCs; for Non-CSCs Max. observed efficacy (% dead cells): Table 1, up to 10 μM
Text: (§1) The inventors first evaluated a cohort of seven rocaglate translation inhibitors (1, 3-7, and 9, FIG. 1A and Table 1, compounds 2 and 8 were not tested due to unavailability). To assay for compounds that selectively affect GBM CSCs, the inventors employed the patient-derived tumor-initiating cell (TIC) cell line […] that forms neurospheres (consisting exclusively of tumor-initiating cells or CSCs) when cultured in neurobasal (NBE) medium. Upon exposure to serum and growth factor withdrawal, however, the cell line differentiates, acquires a flattened morphology, and forms a non-CSC population.^20 Thus, compounds can be tested in parallel to assess their effect on GBM CSCs vs. GBM non-CSCs as separate populations with a clean and robust response. This approach has been previously used to perform RNAi-based genetic screens to identify modulators of CSCs.^20 In this study, GBM0308 cells, cultured in stem cell conditions to form CSCs or in medium containing serum to induce differentiation into a non-CSC population, were treated in parallel with compounds at varying doses. Three days post-treatment, propidium iodide (PI) and Hoechst staining were performed and quantified using a Celigo image cytometer. Hoechst dye stained all […] nucleated cells, while PI exclusively stained dead cells. Cell viability and the percentage of cell death were then determined.
(§2) Cell Culture: Glioblastoma stem cell lines GBM0308, BT145, and BT112 were cultured in neurobasal (NBE medium) containing N-2 and B-27 supplements, EGF, bFGF, L-glutamine, and Penicillin-Streptomycin), as described previously.^19 Adherent GBM cells were cultured in serum-containing DMEM media (Invitrogen) supplemented with 10% fetal bovine serum (Corning Cellgro™). Cells were incubated at 37° C. and 5% CO2 to allow neurosphere formation. For seeding and subculturing, the neurospheres were gently trypsinized with 0.025% trypsin to form a single-cell suspension.
(§3) Dose-Response Testing in GBM Cells: Briefly, on day 1, cells were seeded in triplicate. For CSCs, 1500 cells/well were plated in a low attachment 96-well plate with NBE media and incubated for 3 days at 37° C. and 5% CO2 to allow the formation of neurospheres. For non-CSCs, 3000 cells/well were plated in a 96-well plate with DMEM media supplemented with 10% FBS. Similarly, the assay plates were also incubated for the same duration. Compound treatments started on day 4. Each compound was resuspended in DMSO and then diluted to different concentrations in media to a final concentration of DMSO less than 1%. The compounds were added at concentrations of 10, 3.3, 1.11, 0.37, 0.12, 0.041, 0.013, and 0.004 µM, respectively. DMSO-treated cells served as a control. After 72 h incubation with the compounds, fluorescent stains, propidium iodide, and Hoechst 33342 (Life Technologies, Carlsbad, CA), were used to stain the GBM cells to determine cell viability. A staining solution in 1×PBS was prepared by mixing PI and Hoechst 33342 to working concentrations of 2.5 μM and 20 μM, respectively. 20 μL of this staining solution was added per well, and plates were incubated at 37° C. and 5% CO2 for 60 min. After incubation, plates were read by Celigo imaging cytometer using an inbuilt Celigo application; Cell Viability (Dead+Total). For the viability measurement, the total number of neurospheres/cells and dead neurospheres/cells in each well were counted by the cytometer. The percentage of PI+ cells was normalized to DMSO and plotted against the drug concentration to calculate the EC50 with a four-parameter, variable-slope dose-response curve with an upper constraint of <100% dead cells and a lower constraint of =0% dead cells (GraphPad Prism v.10.0.0). For all dose response experiments, the experimental maximal efficacy (maximum observed % cell death) is reported. Relative EC50 values are reported for all compounds killing >50% of cells.

GBM0308 CSCs = experiment: Dose-response killing of GBM CSCs (PI/Hoechst, Celigo cytometer); assay type: cell-based; settings: for CSCs Max. observed efficacy (% dead cells): up to 10 μM
Text: as §1, §2, §3

`CONC(=O)[C@H]1[C@@H](O)[C@@]2(O)c3c(OC)cc(OC)cc3O[C@@]2(c2ccc(OC)cc2)[C@@H]1c1ccccc1` [(−)-5, CR-1-31b, reference compound] was tested, and the “Non-CSCs Max. observed efficacy (% dead cells)” value (GBM0308 non-CSCs; 72 h) was 22%, the EC50 (GBM0308 CSCs; GBM0308 CSCs, read-out: CSC EC50) was 36 nM and the “CSCs Max. observed efficacy (% dead cells)” value (GBM0308 CSCs; Table 1, GBM0308 CSCs, 72 h) was 91%.

For `CONC(=O)[C@H]1[C@@H](O)[C@@]2(O)c3c(OC)cc(OC)cc3O[C@@]2(c2ccc(Br)cc2)[C@@H]1c1ccccc1` [(−)-7, SDS-1-021], the “Non-CSCs Max. observed efficacy (% dead cells)” value (GBM0308 non-CSCs; 72 h) was 31%, the “CSCs Max. observed efficacy (% dead cells)” value (GBM0308 CSCs; Table 1, GBM0308 CSCs, 72 h) was 92% and the EC50 (GBM0308 CSCs; Table 1, GBM0308 CSCs, 72 h treatment, relative EC50, given for compounds causing at least 50% cell death, read-out: CSCs EC50) was 7 nM.

In the case of `COc1cc(OC)c2c(c1)O[C@@]1(c3ccc(Br)cc3)[C@H](c3ccccc3)[C@@H](C(=O)NS(=O)(=O)N(C)C)[C@@H](O)[C@@]21O` [(−)-20, (1R,2R,3S,3aR,8bS)-3a-(4-bromophenyl)-N—(N,N-dimethylsulfamoyl)-1,8b-dihydroxy-6,8-dimethoxy-3-phenyl-2,3,3a,8b-tetrahydro-1H-cyclopenta[b]benzofuran-2-carboxamide], the “cytotoxic activity against non-CSCs, in words” value (GBM0308 non-CSCs) is reported as “limited detectable effects”, the Emax (GBM0308 non-CSCs; Homo sapiens, Table 2, 72 h, highest tested concentration 10 μM, read-out: Non-CSCs Max. observed efficacy (% dead cells)) is reported as 26% and the “fold by which potency of CSC death is higher than effects on cap-dependent translation” value (GBM0308 CSCs; CSC EC50 vs translation EC50) is reported as about 20 fold. For the same compound, the EC50 (GBM0308 CSCs; Homo sapiens, 72 h, Table 2, GBM0308 CSCs, 72 h treatment, relative EC50, read-out: CSCs EC50) was 45 nM and the Emax (GBM0308 CSCs; Homo sapiens, 72 h, read-out: CSCs Max. observed efficacy (% dead cells), Table 2, GBM0308 CSCs, 72 h, highest tested concentration 10 μM) was 93%.
